Source: PMC10041525, “New Dual Inhibitors of Bacterial Topoisomerases with Broad-Spectrum Antibacterial Activity and In Vivo Efficacy against Vancomycin-Intermediate Staphylococcus aureus” (Journal of Medicinal Chemistry, 2023)
In brackets after ≈: the same amount, converted by molar mass. Read-outs that look alike come from different tables or passages of the source.

Tested on: 100 A. baumannii strains (50 MDR, 50 non-MDR)
Test: MIC broth microdilution at IHMA Europe, panel of 100 strains
Type: cell-based
Settings: for MIC / MIC50 / MIC90: Acinetobacter baumannii; for MIC50: read-out: MIC 50; for MIC90: read-out: MIC 90

SMILES: C[C@@H](O)[C@H]1C(=O)N2C(C(=O)O)=C(S[C@@H]3CN[C@H](C(=O)N(C)C)C3)[C@H](C)[C@H]12 [Meropenem, meropenem]
- MIC (A. baumannii IHMA 2156709, Turkey 2020, MDR, read-out: MIC): > 16 µg/mL
- MIC (A. baumannii IHMA 2157614, Australia 2020, Non-MDR, read-out: MIC): 0.25 µg/mL (≈ 0.652 µM)
- MIC (A. baumannii IHMA 2177232, Lithuania 2020, MDR, read-out: MIC): > 16 µg/mL
- MIC (A. baumannii IHMA 2177489, Lithuania 2020, MDR, read-out: MIC): > 16 µg/mL
- MIC (A. baumannii IHMA 2178574, Ukraine 2020, Non-MDR, read-out: MIC): ≤ 0.06 µg/mL
- MIC (A. baumannii IHMA 2180134, Malaysia 2020, Non-MDR, read-out: MIC): 0.25 µg/mL (≈ 0.652 µM)
- MIC (A. baumannii IHMA 2180142, Malaysia 2020, MDR, read-out: MIC): > 16 µg/mL
- MIC (A. baumannii IHMA 2181370, Morocco 2020, MDR, read-out: MIC): > 16 µg/mL
- MIC (A. baumannii IHMA 2183729, Argentina 2020, MDR, read-out: MIC): > 16 µg/mL
- MIC (A. baumannii IHMA 2183849, Argentina 2020, Non-MDR, read-out: MIC): 0.12 µg/mL (≈ 0.313 µM)
- MIC (A. baumannii IHMA 2184382, Japan 2020, Non-MDR, read-out: MIC): 0.12 µg/mL (≈ 0.313 µM)
- MIC (A. baumannii IHMA 2193375, Venezuela 2020, MDR, read-out: MIC): > 16 µg/mL
- MIC (A. baumannii IHMA 2193485, Venezuela 2020, Non-MDR, read-out: MIC): 0.12 µg/mL (≈ 0.313 µM)
- MIC (A. baumannii IHMA 2193607, Venezuela 2020, MDR, read-out: MIC): > 16 µg/mL
- MIC (A. baumannii IHMA 2195460, Italy 2020, MDR, read-out: MIC): > 16 µg/mL
- MIC (A. baumannii IHMA 2196914, South Africa 2020, MDR, read-out: MIC): > 16 µg/mL
- MIC (A. baumannii IHMA 2196959, South Africa 2020, MDR, read-out: MIC): > 16 µg/mL
- MIC (A. baumannii IHMA 2203763, Spain 2020, MDR, read-out: MIC): > 16 µg/mL
- MIC (A. baumannii IHMA 2205144, Korea, South 2020, MDR, read-out: MIC): 16 µg/mL (≈ 41.7 µM)
- MIC (A. baumannii IHMA 2206459, Taiwan 2020, MDR, read-out: MIC): > 16 µg/mL
- MIC (A. baumannii IHMA 2206507, Taiwan 2020, Non-MDR, read-out: MIC): 0.12 µg/mL (≈ 0.313 µM)
- MIC (A. baumannii IHMA 2212575, Hungary 2020, Non-MDR, read-out: MIC): 0.5 µg/mL (≈ 1.3 µM)
- MIC (A. baumannii IHMA 2215307, Hong Kong 2020, Non-MDR, read-out: MIC): 0.25 µg/mL (≈ 0.652 µM)
- MIC (A. baumannii IHMA 2216586, Taiwan 2020, MDR, read-out: MIC): > 16 µg/mL
- MIC (A. baumannii IHMA 2223200, Colombia 2020, Non-MDR, read-out: MIC): 0.12 µg/mL (≈ 0.313 µM)
- MIC (A. baumannii IHMA 2224017, Panama 2020, MDR, read-out: MIC): > 16 µg/mL
- MIC (A. baumannii IHMA 2224303, Panama 2020, Non-MDR, read-out: MIC): 1 µg/mL (≈ 2.61 µM)
- MIC (A. baumannii IHMA 2231797, Greece 2020, MDR, read-out: MIC): > 16 µg/mL
- MIC (A. baumannii IHMA 2233099, Guatemala 2020, MDR, read-out: MIC): > 16 µg/mL
- MIC (A. baumannii IHMA 2233430, Kazakhstan 2020, MDR, read-out: MIC): > 16 µg/mL
- MIC (A. baumannii IHMA 2233548, Kazakhstan 2020, Non-MDR, read-out: MIC): 0.25 µg/mL (≈ 0.652 µM)
- MIC (A. baumannii IHMA 2238964, Thailand 2020, MDR, read-out: MIC): > 16 µg/mL
- MIC (A. baumannii IHMA 2239052, Thailand 2020, Non-MDR, read-out: MIC): 0.12 µg/mL (≈ 0.313 µM)
- MIC (A. baumannii IHMA 2261047, Belgium 2020, MDR, read-out: MIC): > 16 µg/mL
- MIC (A. baumannii IHMA 2261633, Canada 2020, Non-MDR, read-out: MIC): 0.12 µg/mL (≈ 0.313 µM)
- MIC (A. baumannii IHMA 2274234, South Africa 2020, MDR, read-out: MIC): > 16 µg/mL
- MIC (A. baumannii IHMA 2274364, South Africa 2020, MDR, read-out: MIC): > 16 µg/mL
- MIC (A. baumannii IHMA 2275237, Chile 2020, Non-MDR, read-out: MIC): 0.25 µg/mL (≈ 0.652 µM)
- MIC (A. baumannii IHMA 2275751, Jordan 2020, MDR, read-out: MIC): > 16 µg/mL
- MIC (A. baumannii IHMA 2316205, United States 2020, MDR, read-out: MIC): > 16 µg/mL
- MIC (MDR n = 50, read-out: MAX (maximum MIC; all strains inhibited)): > 16 µg/mL
- MIC50 (MDR n = 50): > 16 µg/mL
- MIC90 (MDR n = 50): > 16 µg/mL
- MIC (MDR n = 50, read-out: MIN (minimum MIC)): 16 µg/mL (≈ 41.7 µM)
- MIC (all isolates n = 100, read-out: MAX (maximum MIC; all strains inhibited)): > 16 µg/mL
- MIC50 (all isolates n = 100): 1 µg/mL (≈ 2.61 µM)
- MIC90 (all isolates n = 100): > 16 µg/mL
- MIC (all isolates n = 100, read-out: MIN (minimum MIC)): ≤ 0.06 µg/mL
- MIC (non-MDR n = 50, read-out: MAX (maximum MIC)): 1 µg/mL (≈ 2.61 µM)
- MIC50 (non-MDR n = 50): 0.25 µg/mL (≈ 0.652 µM)
- MIC90 (non-MDR n = 50): 0.25 µg/mL (≈ 0.652 µM)
- MIC (non-MDR n = 50, read-out: MIN (minimum MIC)): ≤ 0.06 µg/mL
- Percentage I (MDR n = 50): 0%
- Percentage R (MDR n = 50): 100%
- Percentage S (MDR n = 50): 0%
- Percentage I (all n = 100, CLSI breakpoints): 0%
- Percentage R (all n = 100, CLSI breakpoints): 50%
- Percentage S (all n = 100, CLSI breakpoints): 50%
- Percentage I (non-MDR n = 50): 0%
- Percentage R (non-MDR n = 50): 0%
- Percentage S (non-MDR n = 50): 100%
